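Where inhibition never reached the appropriate level, the endpoint shown equals the highest concentration tested. Otherwise, values were interpolated linearly from a five-concentration, 48-hour dose response in 96-well plates. GI50 is the concentration that inhibits growth by half. TGI: concentration producing complete growth inhibition.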
Tests used:
Assay in all cases: growth of human tumour cells (NCI), 48 h
[1] = test system: HT29 colon
[2] = test system: SK-MEL-28 melanoma
[3] = test system: CCRF-CEM leukemia
[4] = test system: A498 renal
[5] = test system: IGROV1 ovarian
[6] = test system: BT-549 breast
[7] = test system: T-47D breast
[8] = test system: HCT-15 colon
[9] = test system: PC-3 prostate
[10] = test system: NCI-H226 lung
[11] = test system: MDA-MB-231 breast
[12] = test system: CAKI-1 renal
[13] = test system: NCI-H522 lung
[14] = test system: KM12 colon
[15] = test system: ACHN renal
[16] = test system: HOP-62 NSCLC
[17] = test system: MDA-N
[18] = test system: EKVX NSCLC
[19] = test system: SK-MEL-2 melanoma
[20] = test system: HS 578T breast
[21] = test system: SN12C renal
[22] = test system: HOP-92 NSCLC
[23] = test system: SF-295 CNS
[24] = test system: RPMI-8226 leukemia
[25] = test system: RXF 393 renal
[26] = test system: SNB-19 CNS
[27] = test system: M14 melanoma
[28] = test system: OVCAR-5 ovarian
[29] = test system: NCI-H23 lung
[30] = test system: MALME-3M melanoma
[31] = test system: SK-MEL-5 melanoma
[32] = test system: SF-268 CNS
[33] = test system: K-562 leukemia
[34] = test system: LOX IMVI melanoma
[35] = test system: UACC-62 melanoma
[36] = test system: A549 NSCLC
[37] = test system: SF-539 CNS
[38] = test system: SW-620 colon
[39] = test system: NCI/ADR-RES ovarian
[40] = test system: SR leukemia
[41] = test system: HCC-2998 colon
[42] = test system: UO-31 renal
[43] = test system: NCI-H460 lung
[44] = test system: MCF7 breast
[45] = test system: OVCAR-3 ovarian
[46] = test system: MDA-MB-435
[47] = test system: 786-0 renal
[48] = test system: SNB-75 CNS
[49] = test system: SK-OV-3 ovarian
[50] = test system: TK-10 renal
[51] = test system: U251 CNS
[52] = test system: MOLT-4 leukemia
[53] = test system: COLO 205 colon
[54] = test system: OVCAR-4 ovarian
[55] = test system: OVCAR-8 ovarian
[56] = test system: UACC-257 melanoma
[57] = test system: HCT-116 colon
[58] = test system: DU-145 prostate
[59] = test system: HL-60(TB) leukemia

O=C(/C=C/c1ccc(-c2ccccc2)cc1)NCc1ccc(C(=O)NCCc2c[nH]c3ccccc23)cc1
TGI [1]: 29.3 µM
TGI [2]: > 100 µM
TGI [3]: 32.1 µM
TGI [4]: 80.4 µM
TGI [5]: > 100 µM
TGI [6]: > 100 µM
TGI [7]: > 100 µM
TGI [8]: > 100 µM
TGI [9]: > 100 µM
TGI [10]: 60.1 µM
TGI [11]: 42.1 µM
TGI [12]: 40.7 µM
TGI [13]: > 100 µM
TGI [14]: > 100 µM
TGI [15]: > 100 µM
TGI [16]: 36.7 µM
TGI [17]: > 100 µM
TGI [18]: 94.8 µM
TGI [19]: > 100 µM
TGI [20]: > 100 µM
TGI [21]: 23.8 µM
TGI [22]: > 100 µM
TGI [23]: 38.6 µM
TGI [24]: > 100 µM
TGI [25]: > 100 µM
TGI [26]: 53.6 µM
TGI [27]: > 100 µM
TGI [28]: 66.6 µM
TGI [29]: > 100 µM
TGI [30]: > 100 µM
TGI [31]: > 100 µM
TGI [32]: > 100 µM
TGI [33]: 45.6 µM
TGI [34]: > 100 µM
TGI [35]: > 100 µM
TGI [36]: 60.4 µM
TGI [37]: > 100 µM
TGI [38]: > 100 µM
TGI [39]: > 100 µM
TGI [40]: > 100 µM
TGI [41]: > 100 µM
TGI [42]: > 100 µM
TGI [43]: > 100 µM
TGI [44]: > 100 µM
TGI [45]: 92.6 µM
TGI [46]: > 100 µM
TGI [47]: 26.7 µM
TGI [48]: 42.8 µM
TGI [49]: 35.2 µM
TGI [50]: 86.8 µM
TGI [51]: > 100 µM
TGI [52]: 38.8 µM
TGI [53]: > 100 µM
TGI [54]: 72.1 µM
TGI [55]: > 100 µM
TGI [56]: > 100 µM
TGI [57]: > 100 µM
TGI [58]: > 100 µM

CC(=N\O)/C(C)=N/O.CC(=N\O)/C(C)=N/O.CC(=N\O)/C(C)=N/O.CC(=N\O)/C(C)=N/O.[Cu].[Cu]
GI50 [1]: 17.7 µM
TGI [1]: 35.4 µM
GI50 [2]: 18.8 µM
TGI [2]: 35.4 µM
GI50 [4]: 24.4 µM
TGI [4]: 39.1 µM
GI50 [5]: 23.8 µM
TGI [5]: 56.2 µM
GI50 [6]: 19 µM
TGI [6]: 33.4 µM
GI50 [7]: 18.4 µM
TGI [7]: 33.7 µM
GI50 [8]: 20.6 µM
TGI [8]: 42.1 µM
GI50 [9]: 16.7 µM
TGI [9]: 30.3 µM
GI50 [10]: 23.5 µM
TGI [10]: 39.2 µM
GI50 [11]: 20.3 µM
TGI [11]: 35.6 µM
GI50 [12]: 20.3 µM
TGI [12]: 34.6 µM
GI50 [13]: 18.2 µM
TGI [13]: 34.1 µM
GI50 [14]: 20.6 µM
TGI [14]: 36.4 µM
GI50 [15]: 18.7 µM
TGI [15]: 32.7 µM
GI50 [16]: 24.7 µM
TGI [16]: 64.8 µM
GI50 [17]: 20.5 µM
TGI [17]: 43.5 µM
GI50 [18]: 19.4 µM
TGI [18]: 38.2 µM
GI50 [19]: 17.4 µM
TGI [19]: 31.4 µM
GI50 [20]: 29.6 µM
TGI [20]: 65.9 µM
GI50 [21]: 18.8 µM
TGI [21]: 35.2 µM
GI50 [22]: 18.4 µM
TGI [22]: 32.8 µM
GI50 [23]: 19.9 µM
TGI [23]: 37.9 µM
GI50 [24]: 27.1 µM
TGI [24]: 63.7 µM
GI50 [25]: 21.5 µM
TGI [25]: 39.3 µM
GI50 [26]: 19.7 µM
TGI [26]: 34.5 µM
GI50 [27]: 18.9 µM
TGI [27]: 34.7 µM
GI50 [28]: 19.3 µM
TGI [28]: 34 µM
GI50 [30]: 17.7 µM
TGI [30]: 32.4 µM
GI50 [31]: 17.8 µM
TGI [31]: 32.2 µM
GI50 [32]: 19.8 µM
TGI [32]: 34.6 µM
GI50 [33]: 34.3 µM
TGI [33]: 91.9 µM
GI50 [34]: 19 µM
TGI [34]: 35.3 µM
GI50 [35]: 17.1 µM
TGI [35]: 30.8 µM
GI50 [36]: 23 µM
TGI [36]: 48.5 µM
GI50 [37]: 20.8 µM
TGI [37]: 37.2 µM
GI50 [38]: 21.5 µM
TGI [38]: 45.9 µM
GI50 [39]: 23.9 µM
TGI [39]: 59.2 µM
GI50 [40]: 24 µM
TGI [40]: 61.4 µM
GI50 [41]: 16.8 µM
TGI [41]: 30.5 µM
GI50 [42]: 13.4 µM
TGI [42]: 27.3 µM
GI50 [43]: 20.4 µM
TGI [43]: 38.5 µM
GI50 [44]: 17.3 µM
TGI [44]: 31.2 µM
GI50 [45]: 22.6 µM
TGI [45]: 43.7 µM
GI50 [46]: 18.5 µM
TGI [46]: 33.7 µM
GI50 [47]: 19.8 µM
TGI [47]: 36.8 µM
GI50 [48]: 17.1 µM
TGI [48]: 31.8 µM
GI50 [49]: 18.6 µM
TGI [49]: 34.5 µM
GI50 [59]: 26.4 µM
TGI [59]: 44.4 µM
GI50 [50]: 19.1 µM
TGI [50]: 33.2 µM
GI50 [51]: 17.6 µM
TGI [51]: 31.3 µM
GI50 [52]: 19.9 µM
TGI [52]: 47.4 µM
GI50 [53]: 18.8 µM
TGI [53]: 34 µM
GI50 [54]: 20.4 µM
TGI [54]: 35.9 µM
GI50 [55]: 20.3 µM
TGI [55]: 38.3 µM
GI50 [56]: 20.2 µM
TGI [56]: 34.5 µM
GI50 [57]: 19.2 µM
TGI [57]: 35.6 µM
GI50 [58]: 56.8 µM
TGI [58]: > 100 µM

NS(=O)(=O)c1ccc(Nc2c3ccccc3nc3c(C(=O)NCCCN(CCO)CCO)cccc23)cc1
TGI [1]: 77 µM
TGI [2]: 41.9 µM
TGI [3]: 58.6 µM
TGI [4]: > 100 µM
TGI [5]: 68.2 µM
TGI [6]: 52.7 µM
TGI [7]: 44.2 µM
TGI [8]: > 100 µM
TGI [9]: > 100 µM
TGI [11]: > 100 µM
TGI [12]: > 100 µM
TGI [13]: 44.1 µM
TGI [14]: 38.5 µM
TGI [15]: > 100 µM
TGI [16]: 66.1 µM
TGI [17]: 41.9 µM
TGI [18]: > 100 µM
TGI [19]: 58.9 µM
TGI [20]: 53.8 µM
TGI [21]: 46.5 µM
TGI [22]: > 100 µM
TGI [23]: > 100 µM
TGI [24]: 78.7 µM
TGI [26]: 45.7 µM
TGI [27]: 45.1 µM
TGI [28]: 98.4 µM
TGI [29]: 53.8 µM
TGI [30]: 42 µM
TGI [31]: 32.4 µM
TGI [32]: 45.5 µM
TGI [33]: > 100 µM
TGI [34]: 59.1 µM
TGI [35]: 57.8 µM
TGI [36]: 69.2 µM
TGI [38]: 52.7 µM
TGI [39]: > 100 µM
TGI [40]: 40.6 µM
TGI [41]: 54.8 µM
TGI [42]: > 100 µM
TGI [43]: 36.9 µM
TGI [44]: 20.1 µM
TGI [45]: 62.5 µM
TGI [46]: 37.2 µM
TGI [47]: 45.2 µM
TGI [49]: > 100 µM
TGI [50]: > 100 µM
TGI [51]: 31.7 µM
TGI [52]: 99 µM
TGI [53]: 30.2 µM
TGI [54]: > 100 µM
TGI [55]: > 100 µM
TGI [56]: 67.6 µM
TGI [58]: > 100 µM

— PubChem BioAssay (NCI)
